Measured values: patent US10759826B2, “15β-substituted estrone derivatives as selective inhibitors of 17β-hydroxysteroid-dehydrogenases, method of preparation and use thereof” (USTAV ORGANICKE CHEMIE A BIOCHEMIE AV CR, V.V.I., priority 2016, dated 2020)

How the values were obtained:
human 17βHSD type 1 = biological target: T1, human 17βHSD type 1 (Homo sapiens, UniProt P14061); test: Inhibition of recombinant 17βHSD type 1, tritium-labeled substrate conversion; type: biochemical; conditions: for inhibition at 0.1 µM: 0.1 μmol · l^−1 test substance; for inhibition at 0.1 µM / inhibition at 1 µM: read-out: % of inhibition of human 17βHSD1; for inhibition at 1 µM: 1 μmol · l^−1 test substance; for IC50: read-out: 17βHSD1 IC50
T1 construct: made in house; expressing system suspended in buffer, not purified
T1 sequence (P14061 1-328): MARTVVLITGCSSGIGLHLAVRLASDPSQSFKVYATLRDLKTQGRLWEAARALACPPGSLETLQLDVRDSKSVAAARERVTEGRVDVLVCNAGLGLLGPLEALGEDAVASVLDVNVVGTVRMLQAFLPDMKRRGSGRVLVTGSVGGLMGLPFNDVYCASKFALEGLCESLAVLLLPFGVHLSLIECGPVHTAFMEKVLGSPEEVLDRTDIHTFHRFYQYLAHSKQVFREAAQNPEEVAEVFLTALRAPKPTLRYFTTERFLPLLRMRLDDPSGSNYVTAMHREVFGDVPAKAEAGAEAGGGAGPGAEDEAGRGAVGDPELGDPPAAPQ
Description: (§1) The inhibitory activity of the test substances was determined for individual isoenzymes from the 17βHSD family, specifically these were the types 1, 2, 3, 4, 5 and 7. Escherichia coli and mammalian cells expression systems were used for recombinant expression of individual isozymes of human 17βHSD. Only in the case of 17HSD5 the enzyme was partially purified and supernatant obtained by centrifugation of the bacterial lysate was used for testing. Systems expressing specific 17βHSD type were suspended in a reaction buffer and incubated with tritium-labeled substrates and respective cofactors at 37° C. in two parallel tests: the control arrangement (DMSO without the inhibitor) and the test arrangement (DMSO with the inhibitor). DMSO serves as a negative control in this case. After 20-30% of the substrate was converted by the activity of the enzyme to the product in a control test, both tests were terminated. Substrate and product from the test arrangement were isolated by SPE (solid phase extraction), and then separated by reverse phase HPLC. Substrate conversion was determined by integration of the signals of the substrate and product, and was expressed in %. For the purposes of the subsequent calculation of enzyme inhibition, the conversion of the control test was designated as 0% inhibition. All tests were performed in triplicates. IC50 values were subsequently determined by a standard method using the “One Ligand Binding” model of SigmaPlot kinetics module (Schustera et. al. J. Ster. Biochem. Mol. Biol. 2011, 125, 148; Möller et. al. Biioorg. Med. Chem. Lett. 2009, 19, 6740; Möller et. al. PLoS One, 2010, 5, 6, e10969).

human 17βHSD type 5 = biological target: T2, human 17βHSD type 5 (Homo sapiens, UniProt P42330); test: Inhibition of recombinant 17βHSD type 5, tritium-labeled substrate conversion; type: biochemical; conditions: 1 μmol · l^−1 test substance
T2 construct: made in house; host or cells: bacteria (Escherichia coli); supernatant of the lysate
T2 sequence (P42330 1-323): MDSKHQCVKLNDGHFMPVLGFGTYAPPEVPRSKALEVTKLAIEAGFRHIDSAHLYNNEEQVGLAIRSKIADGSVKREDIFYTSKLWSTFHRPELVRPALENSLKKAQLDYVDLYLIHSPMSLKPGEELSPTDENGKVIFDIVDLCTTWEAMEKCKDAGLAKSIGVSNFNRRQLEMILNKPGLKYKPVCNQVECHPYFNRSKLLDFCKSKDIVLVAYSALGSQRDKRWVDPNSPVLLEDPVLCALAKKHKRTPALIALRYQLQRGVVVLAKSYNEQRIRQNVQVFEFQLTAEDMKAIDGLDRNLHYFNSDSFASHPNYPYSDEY
Description: as §1

[1] = biological target: T3, estrogen receptor α (ERα) (Homo sapiens, UniProt P03372); test: ERα luciferase reporter assay in U2OS cells; type: cell-based; conditions: for ER antagonism in words: testing range 10 μmol·l^−1 to 1 nmol·l^−1
T3 construct: expressed in transfected cells
T3 sequence (P03372 1-595): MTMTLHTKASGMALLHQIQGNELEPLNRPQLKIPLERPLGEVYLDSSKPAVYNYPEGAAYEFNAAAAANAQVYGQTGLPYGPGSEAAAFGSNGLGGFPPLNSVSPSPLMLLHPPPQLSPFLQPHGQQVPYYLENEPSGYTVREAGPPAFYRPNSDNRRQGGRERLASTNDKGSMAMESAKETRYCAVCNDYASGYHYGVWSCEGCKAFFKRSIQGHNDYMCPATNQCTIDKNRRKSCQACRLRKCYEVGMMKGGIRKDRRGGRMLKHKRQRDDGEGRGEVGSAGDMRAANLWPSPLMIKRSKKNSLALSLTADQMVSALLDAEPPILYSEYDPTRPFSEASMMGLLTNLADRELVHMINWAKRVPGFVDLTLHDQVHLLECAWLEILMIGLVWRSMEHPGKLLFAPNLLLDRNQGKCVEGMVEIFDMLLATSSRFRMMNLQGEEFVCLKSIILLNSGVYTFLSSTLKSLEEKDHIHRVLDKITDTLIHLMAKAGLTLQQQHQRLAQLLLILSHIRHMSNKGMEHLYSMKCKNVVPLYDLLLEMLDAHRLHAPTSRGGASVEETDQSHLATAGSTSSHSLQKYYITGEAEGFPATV

CEM = test: MTT cytotoxicity assay, CEM; type: cell-based; conditions: Homo sapiens, CCRF-CEM
Text: (§2) Compounds 5, 6, 7, 9, 14 and 15 were used for evaluation of antitumor activity. MTT cytotoxicity assay was used in vitro on cell lines derived from normal tissues and from tumors. Specifically, these were the K562 line (human myeloid leukemia), K562-Tax (human myeloid leukemia resistant to taxol and overexpressing PgP protein for multidrug resistance), CEM (T-lymphoblastic leukemia), CEM-DNR bulk (T-lymphoblastic leukemia resistant doxorubicin, lacking the expression of the target gene for inhibitors of topoisomerase II alpha), A549 line (human lung adenocarcinoma), HCT116p53 wt (human colon cancer), HCT116p53−/− (human colon cancer, mutant p53), U2OS line of human osteosarcoma and two fibroblast lines MRC5 and BJ as examples of non-tumor cells. Expression characteristics, profiles of susceptibility to classical antitumor drugs and methodology of the MTT cytotoxicity assay were repeatedly published (e.g. Noskova et al. Neoplasma 2002, 49, 418; S̆arek et. al. J. Med. Chem. 2003, 46, 25, 5402).

CEM-DNR-bulk = test: MTT cytotoxicity assay, CEM-DNR-bulk; type: cell-based
Text: as §2

K562 = test: MTT cytotoxicity assay, K562; type: cell-based; conditions: Homo sapiens
Text: as §2

K562-Tax = test: MTT cytotoxicity assay, K562-Tax; type: cell-based; conditions: Homo sapiens
Text: as §2

A549 = test: MTT cytotoxicity assay, A549; type: cell-based; conditions: Homo sapiens
Text: as §2

HCT116p53 wt = test: MTT cytotoxicity assay, HCT116p53 wt; type: cell-based; conditions: Homo sapiens
Text: as §2

HCT116p53-/- = test: MTT cytotoxicity assay, HCT116p53-/-; type: cell-based; conditions: Homo sapiens
Text: as §2

U2OS = test: MTT cytotoxicity assay, U2OS; type: cell-based; conditions: Homo sapiens
Text: as §2

BJ = test: MTT cytotoxicity assay, BJ fibroblasts; type: cell-based; conditions: Homo sapiens, non-tumor fibroblasts
Text: as §2

MRCS = test: MTT cytotoxicity assay, MRC5 fibroblasts; type: cell-based; conditions: Homo sapiens, Fibroblast, non-tumor fibroblasts
Text: as §2

human 17βHSD1 [2] = biological target: T4, human 17βHSD1 (Homo sapiens, UniProt P14061); test: 17βHSD inhibition in CHO cells transfected with human 17βHSD1, E1 in supernatant; type: cell-based; set-up: expressed in transfected cells; conditions: 10 μmol·l^−1
T4 sequence (P14061 1-328): T1 sequence (P14061 1-328)
Description: (§3) For this experiment, non-cytotoxic concentrations of estrone derivative (10 μmol·l^−1) were used. E1 levels were determined by an immuno-enzymatic assay.

human 17βHSD1 [3] = biological target: T4, human 17βHSD1; test: 17βHSD inhibition in MCF-7 cells transfected with human 17βHSD1, E1 in supernatant; type: cell-based; set-up: expressed in transfected cells; host or cells: MCF-7; conditions: 10 μmol·l^−1
Description: as §3

Row | Compound | inhibition at 0.1 µM (human 17βHSD type 1) | inhibition at 1 µM (human 17βHSD type 1) | IC50 (human 17βHSD type 1) | % of inhibition of human 17βHSD5 (human 17βHSD type 5) | melting point | other results
1 | C=C[C@@H]1CC(=O)[C@@]2(C)CC[C@@H]3c4ccc(O)cc4CC[C@H]3[C@H]12 [Compound 2a, 3-Hydroxy-15β-vinyl-estra-1,3,5(10)-trien-17-one] | 79% | 95% | 17 nM | 7% | 162 °C | isoenzyme selectivity in words (human 17βHSD type 1; among 17βHSD types 1, 2, 3, 4, 5, 7): inhibits exclusively the 17βHSD1 isoenzyme; estrogenic effect in words [1]: partial estrogenicity
2 | C[C@]12CC[C@@H]3c4ccc(O)cc4CC[C@H]3[C@@H]1[C@H](CCc1c(F)c(F)c(F)c(F)c1F)CC2=O [Compound 17, 15β-(2,3,4,5,6-Pentafluorophenethyl)-3-hydroxy-estra-1,3,5(10)-trien-17-one] | 56% | 90% | – | 31. % | 151 °C | –
3 | C[C@]12CC[C@@H]3c4ccc(O)cc4CC[C@H]3[C@@H]1[C@H](CCc1ccccc1)CC2=O [Compound 3, 15β-Phenethyl-3-hydroxy-estra-1,3,5(10)-trien-17-one] | 66% | 83% | 50 nM | 60% | – | ER antagonism in words [1]: ER antagonist
4 | C[C@]12CC[C@@H]3c4ccc(O)cc4CC[C@H]3[C@@H]1[C@H](CCc1ccc(C(F)(F)F)cc1)CC2=O [Compound 4, 15β-(4-(Trifluoromethyl)phenethyl)-3-hydroxy-estra-1,3,5(10)-trien-17-one] | 68% | 91% | 42 nM | 89% | 168 °C | ER antagonism in words [1]: ER antagonist
5 | C[C@]12CC[C@@H]3c4ccc(O)cc4CC[C@H]3[C@@H]1[C@H](CCc1cc(F)c(F)c(F)c1)CC2=O [Compound 16, 15β-(3,4,5-Trifluorophenethyl)-3-hydroxy-estra-1,3,5(10)-trien-17-one] | 67% | 95% | 36 nM | 79% | 182 °C | –
6 | COc1cccc(CC[C@@H]2CC(=O)[C@@]3(C)CC[C@@H]4c5ccc(O)cc5CC[C@H]4[C@H]23)c1 [Compound 10, 3-Hydroxy-15β-(3-methoxyphenethyl)-estra-1,3,5(10)-trien-17-one] | 72% | 87% | – | – | 178 °C | –
7 | C[C@]12CC[C@@H]3c4ccc(O)cc4CC[C@H]3[C@@H]1[C@H](CCc1ccc(O)cc1)CC2=O [Compound 14, 15β-(4-Hydroxyphenethyl)-3-hydroxy-estra-1,3,5(10)-trien-17-one] | 72% | 97% | – | 42% | – | IC50 (CEM): 25.8 µM; IC50 (CEM-DNR-bulk): 30.8 µM; IC50 (K562): 22.6 µM; IC50 (K562-Tax): 18.9 µM; IC50 (A549): 41.3 µM; IC50 (HCT116p53 wt): 28.2 µM; IC50 (HCT116p53-/-): 32.6 µM; IC50 (U2OS): 44.6 µM; IC50 (BJ): ≥ 50 µM; IC50 (MRCS): 50 µM; E1 in supernatant, CHO (human 17βHSD1 [2]; 8 hr.): 3179 pg/mL; E1 in supernatant, CHO (human 17βHSD1 [2]; 24 hr.): 1054 pg/mL; E1 in supernatant, MCF-7 (human 17βHSD1 [3]; 8 hr.): 4298 pg/mL; E1 in supernatant, MCF-7 (human 17βHSD1 [3]; 24 hr.): 2626 pg/mL
8 | COc1ccc(CC[C@@H]2CC(=O)[C@@]3(C)CC[C@@H]4c5ccc(O)cc5CC[C@H]4[C@H]23)cc1OC [Compound 11, 3-Hydroxy-15β-(3,4-dimethoxyphenethyl)-estra-1,3,5(10)-trien-17-one] | 36% | 67% | – | – | – | –
9 | CC(C)(C)Oc1ccc(CC[C@@H]2CC(=O)[C@@]3(C)CC[C@@H]4c5ccc(O)cc5CC[C@H]4[C@H]23)cc1 [Compound 13, 15β-(4-t-Butoxyphenethyl)-3-hydroxy-estra-1,3,5(10)-trien-17-one] | 62% | 80% | – | – | – | –
10 | C[C@]12CC[C@@H]3c4ccc(O)cc4CC[C@H]3[C@@H]1[C@H](CCc1ccc3ccccc3c1)CC2=O [Compound 8, 3-Hydroxy-15β-(2-(naphtalen-2-yl)ethyl)-estra-1,3,5(10)-trien-17-one] | 77% | 92% | 18 nM | 76% | 201 °C | –
